Reference: patent publication US10221167B2, “Hydroxyalkylamine- and hydroxycycloalkylamine-substituted diamine-arylsulfonamide compounds with selective activity in voltage-gated sodium channels” (Merck Sharp & Dohme Corp., priority 2015, dated 2019)

Key:
[1] = target: T1, human Nav1.7 channels stably expressed in HEK 293 cells (Homo sapiens, UniProt Q15858); test: IonWorks Quattro automated patch-clamp, state-dependent inhibition of Nav1.7; type: cell-based; conditions: inactivated state block, double-pulse protocol, holding -100 mV, read-out: potency for the Nav 1.7 sodium ion channel (as measured by IonWorks)
T1 construct: expressed in transfected cells
Protocol: (§1) Compounds were tested on human Nav1.7 and Nav1.5 channels stably expressed in HEK 293 cells. […] Cells were sealed on a planar substrate using the Population Patch Plate (PPC) technology. Electrical access was obtained using both nystatin and amphotericin. A double-pulse protocol was used for the determination of IC50 values for inactivated state block. Nav1.7 and Nav1.5 expressing cells were voltage clamped at −100 mV and −110 mV, respectively. A depolarizing prepulse to −10 mV (Nav1.7) or −30 mV (Nav1.5) for 1000 ms followed by a 10 ms repolarization to −100 mV (Nav1.7) or −110 mV (Nav1.5) was given to generate fractional channel inactivation of ˜50%, followed by a 10 ms test pulse to −10 mV (Nav1.7) or −30 mV (Nav1.5) to measure peak current in control conditions and after compound addition. The following recording solutions were used (mM). External: 150 NaCl, 2 CaCl2, 5 KCl, 1 Mg Cl2, 10 HEPES, 12 Dextrose; internal: 120 CsF, 30 CsCl, 10 EGTA, 5 HEPES, 5 NaF, 2 MgCl2.
(§2) For all electrophysiology experiments, offline analysis was used to determine percent inhibition as a function of drug concentration. IC50 values were determined by fitting to the Hill equation.
(§3) The various compounds in Examples 1 through 4 and Tables 1 through 3 exemplified above were assayed for activity and selectivity using the foregoing IonWorks® technique. The results are reported in the following paragraph in a format expressing the identification of the compound with reference Example and compound (e.g. Ex 1-1 is Example 1, compound 1) followed by the observed potency in nM and the ratio of Nav1.7 potency:Nav 1.5 potency as described here. […]

[2] = target: T2, human Nav1.5 channels stably expressed in HEK 293 cells (Homo sapiens, UniProt Q14524); test: IonWorks Quattro automated patch-clamp, Nav1.5 (selectivity ratio versus Nav1.7); type: cell-based; conditions: selectivity for Nav1.7 over Nav1.5, inactivated state block
T2 construct: expressed in transfected cells
Protocol: as §1, §2, §3

T2 sequence (Q14524 whole entry): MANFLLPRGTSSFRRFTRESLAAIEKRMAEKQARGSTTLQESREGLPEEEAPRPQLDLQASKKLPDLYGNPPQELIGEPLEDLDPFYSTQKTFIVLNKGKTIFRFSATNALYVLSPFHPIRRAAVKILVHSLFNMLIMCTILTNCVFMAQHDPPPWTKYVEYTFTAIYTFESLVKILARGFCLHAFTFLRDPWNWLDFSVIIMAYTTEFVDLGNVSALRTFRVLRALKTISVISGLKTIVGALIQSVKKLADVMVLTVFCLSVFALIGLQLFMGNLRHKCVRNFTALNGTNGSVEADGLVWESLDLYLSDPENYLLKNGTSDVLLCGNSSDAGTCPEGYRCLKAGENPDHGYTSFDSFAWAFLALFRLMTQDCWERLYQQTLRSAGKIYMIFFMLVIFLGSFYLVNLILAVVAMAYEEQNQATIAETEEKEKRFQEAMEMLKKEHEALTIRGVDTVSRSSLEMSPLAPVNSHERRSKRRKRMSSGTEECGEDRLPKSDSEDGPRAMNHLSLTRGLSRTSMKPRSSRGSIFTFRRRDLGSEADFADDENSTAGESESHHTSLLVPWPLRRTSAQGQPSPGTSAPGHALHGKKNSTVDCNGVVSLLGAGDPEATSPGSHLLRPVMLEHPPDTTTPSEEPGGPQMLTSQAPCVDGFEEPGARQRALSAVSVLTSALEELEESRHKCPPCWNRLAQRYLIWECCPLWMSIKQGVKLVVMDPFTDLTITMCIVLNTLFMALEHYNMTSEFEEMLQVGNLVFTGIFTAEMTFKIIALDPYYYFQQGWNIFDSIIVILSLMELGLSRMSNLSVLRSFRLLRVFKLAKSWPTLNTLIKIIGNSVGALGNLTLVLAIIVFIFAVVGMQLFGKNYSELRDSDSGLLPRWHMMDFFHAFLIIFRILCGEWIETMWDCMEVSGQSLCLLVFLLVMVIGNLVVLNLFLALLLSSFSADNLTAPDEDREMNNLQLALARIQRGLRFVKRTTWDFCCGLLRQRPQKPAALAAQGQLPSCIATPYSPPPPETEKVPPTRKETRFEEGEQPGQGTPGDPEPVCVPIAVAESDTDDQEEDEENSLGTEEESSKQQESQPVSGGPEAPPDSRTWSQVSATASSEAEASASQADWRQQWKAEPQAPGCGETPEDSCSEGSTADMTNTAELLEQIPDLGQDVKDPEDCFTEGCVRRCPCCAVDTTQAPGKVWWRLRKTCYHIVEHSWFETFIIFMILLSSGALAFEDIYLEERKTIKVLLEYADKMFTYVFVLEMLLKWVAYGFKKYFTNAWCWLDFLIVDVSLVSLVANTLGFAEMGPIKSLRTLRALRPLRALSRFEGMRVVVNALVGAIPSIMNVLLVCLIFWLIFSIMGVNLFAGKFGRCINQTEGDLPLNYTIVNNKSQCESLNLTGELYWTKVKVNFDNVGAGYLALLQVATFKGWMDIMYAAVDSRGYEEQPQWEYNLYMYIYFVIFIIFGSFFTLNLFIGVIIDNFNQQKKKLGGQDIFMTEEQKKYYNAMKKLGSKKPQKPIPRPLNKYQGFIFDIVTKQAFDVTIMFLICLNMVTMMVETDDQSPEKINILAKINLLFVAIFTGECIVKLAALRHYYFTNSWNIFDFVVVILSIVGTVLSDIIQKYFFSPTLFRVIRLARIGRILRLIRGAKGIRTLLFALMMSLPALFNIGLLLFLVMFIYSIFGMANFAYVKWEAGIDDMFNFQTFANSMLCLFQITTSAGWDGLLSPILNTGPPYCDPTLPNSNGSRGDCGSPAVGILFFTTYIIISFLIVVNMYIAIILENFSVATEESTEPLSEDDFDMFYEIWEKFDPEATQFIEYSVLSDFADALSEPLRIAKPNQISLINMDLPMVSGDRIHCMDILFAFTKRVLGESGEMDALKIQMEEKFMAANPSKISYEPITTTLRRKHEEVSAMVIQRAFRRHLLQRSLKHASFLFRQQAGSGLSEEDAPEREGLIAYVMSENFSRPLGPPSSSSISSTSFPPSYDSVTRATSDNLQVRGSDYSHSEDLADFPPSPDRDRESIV
T1 sequence (Q15858 whole entry): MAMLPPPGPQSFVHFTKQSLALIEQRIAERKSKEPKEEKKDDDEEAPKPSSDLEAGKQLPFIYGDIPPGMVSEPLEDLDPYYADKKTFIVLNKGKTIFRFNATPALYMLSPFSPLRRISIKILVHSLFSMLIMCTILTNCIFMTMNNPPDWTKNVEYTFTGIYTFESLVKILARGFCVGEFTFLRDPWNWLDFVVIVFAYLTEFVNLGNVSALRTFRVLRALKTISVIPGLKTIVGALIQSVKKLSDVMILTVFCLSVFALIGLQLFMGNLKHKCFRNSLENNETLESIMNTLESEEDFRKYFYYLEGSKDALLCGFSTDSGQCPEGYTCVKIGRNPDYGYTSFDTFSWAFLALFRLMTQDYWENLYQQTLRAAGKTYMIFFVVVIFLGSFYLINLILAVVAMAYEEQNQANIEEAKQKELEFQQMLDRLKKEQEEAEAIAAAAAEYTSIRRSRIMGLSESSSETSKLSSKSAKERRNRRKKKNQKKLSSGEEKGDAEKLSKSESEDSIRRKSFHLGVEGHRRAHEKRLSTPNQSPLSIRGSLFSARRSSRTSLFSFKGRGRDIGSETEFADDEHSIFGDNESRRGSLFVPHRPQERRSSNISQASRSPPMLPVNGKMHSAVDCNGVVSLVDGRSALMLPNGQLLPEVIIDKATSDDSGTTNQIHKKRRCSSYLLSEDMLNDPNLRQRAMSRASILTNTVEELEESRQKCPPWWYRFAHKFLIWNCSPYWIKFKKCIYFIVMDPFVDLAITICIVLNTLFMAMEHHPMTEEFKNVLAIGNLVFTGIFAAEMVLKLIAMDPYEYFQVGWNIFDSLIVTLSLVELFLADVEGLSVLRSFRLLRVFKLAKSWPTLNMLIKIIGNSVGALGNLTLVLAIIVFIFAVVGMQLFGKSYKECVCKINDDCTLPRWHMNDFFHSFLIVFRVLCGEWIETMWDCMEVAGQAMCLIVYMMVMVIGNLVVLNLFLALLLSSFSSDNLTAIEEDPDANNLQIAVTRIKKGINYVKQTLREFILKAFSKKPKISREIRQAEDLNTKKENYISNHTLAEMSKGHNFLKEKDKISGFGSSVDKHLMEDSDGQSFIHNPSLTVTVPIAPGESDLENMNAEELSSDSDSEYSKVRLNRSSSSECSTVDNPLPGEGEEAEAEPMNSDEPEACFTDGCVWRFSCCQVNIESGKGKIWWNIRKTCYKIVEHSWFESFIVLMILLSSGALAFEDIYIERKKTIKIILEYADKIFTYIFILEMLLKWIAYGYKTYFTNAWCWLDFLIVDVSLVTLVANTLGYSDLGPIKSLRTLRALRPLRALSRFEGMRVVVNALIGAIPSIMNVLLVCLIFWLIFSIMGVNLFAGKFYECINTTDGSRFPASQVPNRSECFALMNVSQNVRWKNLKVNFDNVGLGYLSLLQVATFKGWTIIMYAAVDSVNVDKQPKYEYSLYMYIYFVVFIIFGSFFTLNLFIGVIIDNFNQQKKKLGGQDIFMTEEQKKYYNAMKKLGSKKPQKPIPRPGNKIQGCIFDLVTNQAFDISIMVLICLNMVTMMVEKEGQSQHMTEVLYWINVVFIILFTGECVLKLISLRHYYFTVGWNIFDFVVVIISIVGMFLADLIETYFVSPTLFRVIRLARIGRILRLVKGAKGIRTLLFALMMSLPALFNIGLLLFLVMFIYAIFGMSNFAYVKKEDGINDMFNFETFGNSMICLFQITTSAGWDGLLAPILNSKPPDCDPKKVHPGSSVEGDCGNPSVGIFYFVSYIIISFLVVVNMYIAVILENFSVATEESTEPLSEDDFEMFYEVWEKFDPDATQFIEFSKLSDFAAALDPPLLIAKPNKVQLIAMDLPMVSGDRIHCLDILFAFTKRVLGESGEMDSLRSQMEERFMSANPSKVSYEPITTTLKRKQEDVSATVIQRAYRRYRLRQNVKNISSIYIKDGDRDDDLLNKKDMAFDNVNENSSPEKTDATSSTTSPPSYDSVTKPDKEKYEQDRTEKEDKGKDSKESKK

Q: For `NCC(O)CNCCCCNc1cc(F)c(S(=O)(=O)Nc2ncc(F)s2)cc1Cl` (single isomer, unassigned) [EX 2-17, 4-[(4-{[(2R or 2S)-3-amino-2-hydroxypropyl]amino}butyl)amino]-5-chloro-2-fluoro-N-(5-fluoro-1,3-thiazol-2-yl)benzenesulfonamide], which IC50 [1] is on record?
A: Its IC50 is 15 nM.

Q: For `NCC(O)CNCCCCNc1cc(F)c(S(=O)(=O)Nc2ncc(F)s2)cc1Cl` (single isomer, unassigned) [EX 2-18, 4-[(4-{[(2S or 2R)-3-amino-2-hydroxypropyl]amino}butyl)amino]-5-chloro-2-fluoro-N-(5-fluoro-1,3-thiazol-2-yl)benzenesulfonamide], which IC50 [1] is on record?
A: Its IC50 is 16 nM.

Q: What about the “ratio of Nav1.7 potency:Nav 1.5 potency” value [2] of the same compound?
A: Its value is ≥ 1000.

Q: With `NCC(O)CNCCCCNc1cc(F)c(S(=O)(=O)Nc2nccs2)cc1Cl` (single isomer, unassigned) [EX 2-29, 4-[(4-{[(2R or 2S)-3-amino-2-hydroxypropyl]amino}butyl)amino]-5-chloro-2-fluoro-N-1,3-thiazol-2-ylbenzenesulfonamide] as the compound, how does the IC50 [1] read?
A: The IC50 was 18 nM.

Q: For `NCC(O)CNCCCCNc1cc(F)c(S(=O)(=O)Nc2nccs2)cc1Cl` (single isomer, unassigned) [EX 2-30, 4-[(4-{[(2S or 2R)-3-amino-2-hydroxypropyl]amino}butyl)amino]-5-chloro-2-fluoro-N-1,3-thiazol-2-ylbenzenesulfonamide], which IC50 [1] is on record?
A: Its IC50 is 17 nM.

Q: For `NC[C@H](O)CNCCCCNc1cc(F)c(S(=O)(=O)Nc2ncns2)cc1Cl` [EX 1-1, 4-[(4-{[(2S)-3-amino-2-hydroxypropyl]amino}butyl)amino]-5-chloro-2-fluoro-N-1,2,4-thiadiazol-5-ylbenzenesulfonamide], which IC50 [1] is on record?
A: The IC50 was 50 nM.

Q: And the “ratio of Nav1.7 potency:Nav 1.5 potency” value [2]?
A: Its value is ≥ 660.

Q: Which IC50 [1] does the source give for `NCC1(O)CN(CCCCNc2cc(F)c(S(=O)(=O)Nc3ncc(F)s3)cc2Cl)C1` [EX 1-2, 4-({4-[3-(aminomethyl)-3-hydroxyazetidin-1-yl]butyl}amino)-5-chloro-2-fluoro-N-(5-fluoro-1,3-thiazol-2-yl)benzenesulfonamide] here?
A: The IC50 was 20 nM.

Q: How did the IC50 [1] turn out when `Cc1cc(S(=O)(=O)Nc2ncc(F)s2)c(F)cc1NCCCCNCC1(O)CNC1` [EX 1-4, 2-fluoro-N-(5-fluoro-1,3-thiazol-2-yl)-4-[(4-{[(3-hydroxyazetidin-3-yl)methyl]amino}butyl)amino]-5-methylbenzenesulfonamide] was run?
A: The IC50 was 39 nM.

Q: What about the “ratio of Nav1.7 potency:Nav 1.5 potency” value [2] of the same compound?
A: The value was ≥ 846.

Q: With `O=S(=O)(Nc1ncns1)c1cc(Br)c(NCCCCNCC2(O)CNC2)cc1F` [EX 1-5, 5-bromo-2-fluoro-4-[(4-{[(3-hydroxyazetidin-3-yl)methyl]amino}butyl)amino]-N-1,2,4-thiadiazol-5-ylbenzenesulfonamide] as the compound, how does the IC50 [1] read?
A: The IC50 was 19 nM.

Q: How did the IC50 [1] turn out when `NC[C@@H](O)CNCCCCNc1cc(F)c(S(=O)(=O)Nc2ncns2)cc1Cl` [EX 1-6, 4-[(4-{[(2R)-3-amino-2-hydroxypropyl]-amino}butyl)amino]-5-chloro-2-fluoro-N-1,2,4-thiadiazol-5-yl-benzenesulfonamide] was run?
A: Its IC50 is 15 nM.

Q: For `NC[C@H](O)CNCCCCNc1cc(F)c(S(=O)(=O)Nc2ncns2)cc1Br` [EX 1-7, 4-[(4-{[(2S)-3-amino-2-hydroxypropyl]-amino}butyl)amino]-5-bromo-2-fluoro-N-1,2,4-thiadiazol-5-yl-benzenesulfonamide], which IC50 [1] is on record?
A: The IC50 was 7 nM.

Q: And the “ratio of Nav1.7 potency:Nav 1.5 potency” value [2]?
A: The value was ≥ 4714.

Q: How did the IC50 [1] turn out when `NC[C@@H](O)CNCCCCNc1cc(F)c(S(=O)(=O)Nc2ncns2)cc1Br` [EX 1-8, 4-[(4-{[(2R)-3-amino-2-hydroxypropyl]-amino}-butyl)amino]-5-bromo-2-fluoro-N-1,2,4-thiadiazol-5-yl-benzenesulfonamide] was run?
A: The IC50 was 17 nM.

Q: How did the IC50 [1] turn out when `Cc1csc(NS(=O)(=O)c2cc(Cl)c(NCCCCNCC3(O)CNC3)cc2F)n1` [EX 1-9, 5-chloro-2-fluoro-4-[(4-{[(3-hydroxyazetidin-3-yl)methyl]amino}butyl)amino]-N-(4-methyl-1,3-thiazol-2-yl)-benzenesulfonamide] was run?
A: The IC50 was 55 nM.

Q: And the “ratio of Nav1.7 potency:Nav 1.5 potency” value [2]?
A: Its value is ≥ 600.

Q: With `NCC1(O)CN(CCCCNc2cc(F)c(S(=O)(=O)Nc3ncns3)cc2Br)C1` [EX 1-11, 4-((4-(3-(aminomethyl)-3-hydroxyazetidin-1-yl)butyl)amino)-5-bromo-2-fluoro-N-(1,2,4-thiadiazol-5-yl)benzenesulfonamide] as the compound, how does the IC50 [1] read?
A: Its IC50 is 6.6 nM.

Q: What about the “ratio of Nav1.7 potency:Nav 1.5 potency” value [2] of the same compound?
A: Its value is ≥ 5000.

Q: How did the IC50 [1] turn out when `O=S(=O)(Nc1ncns1)c1cc(Cl)c(NCCCCNCC2(O)CNC2)cc1F` [EX 2-1, 5-chloro-2-fluoro-4-[(4-{[(3-hydroxyazetidin-3-yl)methyl]amino}butyl)amino]-N-1,2,4-thiadiazol-5-ylbenzenesulfonamide] was run?
A: Its IC50 is 16 nM.

Q: What about the “ratio of Nav1.7 potency:Nav 1.5 potency” value [2] of the same compound?
A: The value was ≥ 2063.

Q: How did the IC50 [1] turn out when `O=S(=O)(Nc1ncns1)c1cc(Cl)c(NCCCCN[C@@H]2CNC[C@H]2O)cc1F` [EX 2-2, 5-chloro-2-fluoro-4-[(4-{[(3R,4R)-4-hydroxypyrrolidin-3-yl]amino}butyl)amino]-N-1,2,4-thiadiazol-5-ylbenzenesulfonamide] was run?
A: The IC50 was 23 nM.

Q: How did the IC50 [1] turn out when `O=S(=O)(Nc1ncc(F)s1)c1cc(Cl)c(NCCCCN[C@@H]2CNC[C@H]2O)cc1F` [EX 2-20, 5-chloro-2-fluoro-N-(5-fluoro-1,3-thiazol-2-yl)-4-[(4-{[(3R,4R)-4-hydroxypyrrolidin-3-yl]amino}butyl)amino] benzenesulfonamide] was run?
A: The IC50 was 40 nM.

Q: For `O=S(=O)(Nc1ncc(F)s1)c1cc(Cl)c(NCCCCNC[C@H]2C[C@@H](O)CN2)cc1F` [EX 2-23, 5-chloro-2-fluoro-N-(5-fluoro-1,3-thiazol-2-yl)-4-{[4-({[(2R,4R)-4-hydroxypyrrolidin-2-yl]methyl}amino)butyl]amino} benzenesulfonamide], which IC50 [1] is on record?
A: The IC50 was 23 nM.

Q: Which IC50 [1] does the source give for `O=S(=O)(Nc1ncc(F)s1)c1cc(Cl)c(NCCCCNC[C@H]2C[C@H](O)CN2)cc1F` [EX 2-24, 5-chloro-2-fluoro-N-(5-fluoro-1,3-thiazol-2-yl)-4-{[4-({[(2R,4S)-4-hydroxypyrrolidin-2-yl]methyl}amino)butyl]amino} benzenesulfonamide] here?
A: The IC50 was 30 nM.

Q: How did the IC50 [1] turn out when `O=S(=O)(Nc1ncc(F)s1)c1cc(Br)c(NCCCCNCC2(O)CNC2)cc1F` [EX 2-25, 5-bromo-2-fluoro-N-(5-fluoro-1,3-thiazol-2-yl)-4-[(4-{[(3-hydroxyazetidin-3-yl)methyl]amino}butyl)amino] benzenesulfonamide] was run?
A: Its IC50 is 15 nM.

Q: How did the IC50 [1] turn out when `O=S(=O)(Nc1nccs1)c1cc(Cl)c(NCCCCNCC2(O)CNC2)cc1F` [EX 2-28, 5-chloro-2-fluoro-4-[(4-{[(3-hydroxyazetidin-3-yl)methyl]amino}butyl)amino]-N-1,3-thiazol-2-ylbenzenesulfonamide] was run?
A: Its IC50 is 18 nM.

Q: With `O=S(=O)(Nc1nccs1)c1cc(Cl)c(NCCCCN[C@@H]2CNC[C@H]2O)cc1F` [EX 2-31, 5-chloro-2-fluoro-4-[(4-{[(3R,4R)-4-hydroxypyrrolidin-3-yl]amino}butyl)amino]-N-1,3-thiazol-2-ylbenzenesulfonamide] as the compound, how does the IC50 [1] read?
A: The IC50 was 30 nM.

Q: Which IC50 [1] does the source give for `NCC[C@@H](CO)NCCCCNc1cc(F)c(S(=O)(=O)Nc2nccs2)cc1Cl` [EX 2-32, 4-[(4-{[(1S)-3-amino-1-(hydroxymethyl)propyl]amino}butyl)amino]-5-chloro-2-fluoro-N-1,3-thiazol-2-ylbenzenesulfonamide] here?
A: Its IC50 is 19 nM.

Q: `NCC[C@@H](CO)NCCCCNc1cc(F)c(S(=O)(=O)Nc2ncc(F)s2)cc1Cl` [EX 2-33, 4-[(4-{[(1S)-3-amino-1-(hydroxymethyl)propyl]amino}butyl)amino]-5-chloro-2-fluoro-N-(5-fluoro-1,3-thiazol-2-yl)benzenesulfonamide] was tested. Which IC50 [1] did it give?
A: Its IC50 is 20 nM.

Q: For `NCC[C@@H](CO)NCCCCNc1cc(F)c(S(=O)(=O)Nc2ncns2)cc1Cl` [EX 2-34, 4-[(4-{[(1S)-3-amino-1-(hydroxymethyl)propyl]amino}butyl)amino]-5-chloro-2-fluoro-N-1,2,4-thiadiazol-5-ylbenzenesulfonamide], which IC50 [1] is on record?
A: Its IC50 is 18 nM.

Q: `NC[C@@H](CO)NCCCCNc1cc(F)c(S(=O)(=O)Nc2nccs2)cc1Cl` [EX 2-35, 4-[(4-{[(1S)-2-amino-1-(hydroxymethyl)ethyl]amino}butyl)amino]-5-chloro-2-fluoro-N-1,3-thiazol-2-ylbenzenesulfonamide] was tested. Which IC50 [1] did it give?
A: Its IC50 is 15 nM.

Q: Which IC50 [1] does the source give for `O=S(=O)(Nc1nccs1)c1cc(Cl)c(NCCCCN[C@H]2CNC[C@@H]2O)cc1F` [EX 2-38] here?
A: The IC50 was 40 nM.

Q: `NC[C@H](CO)NCCCCNc1cc(F)c(S(=O)(=O)Nc2ncc(F)s2)cc1Cl` [EX 2-40, 4-[(4-{[(1R)-2-amino-1-(hydroxymethyl)ethyl]amino}butyl)amino]-5-chloro-2-fluoro-N-(5-fluoro-1,3-thiazol-2-yl)benzenesulfonamide] was tested. Which IC50 [1] did it give?
A: Its IC50 is 50 nM.

Q: For `O=S(=O)(Nc1ncns1)c1cc(Br)c(NCCCCN[C@H]2CNC[C@@H]2O)cc1F` [EX 2-43, 5-bromo-2-fluoro-4-((4-(((3S,4S)-4-hydroxypyrrolidin-3-yl)amino)butyl)amino)-N-(1,2,4-thiadiazol-5-yl)benzenesulfonamide], which IC50 [1] is on record?
A: Its IC50 is 15 nM.
